Test system: PGM1-defective patient fibroblasts
Assay: Nucleotide sugar analysis (UPLC-PDA), patient fibroblasts
Type: cell-based, human
Procedure: Levels of nucleotides and sugar-nucleotides were determined. Fibroblast cell pellets (5×10^6 cells per sample) were lysed and extracted in 0.37 ml ice-cold 0.5 M perchloric acid with sonication on ice. Samples were neutralized with 86 μl ice-cold neutralization solution (2.5 M KOH in 1.5 M K2HPO4) after 5 minute sonication. To remove precipitated potassium perchlorate neutralized samples were centrifuged at 4° C. and 16,400×g for 10 minutes and filtered with 0.2 μm filters. Nucleotides and sugar-nucleotides were immediately analyzed and separated via ion-pair reverse phased chromatography using an Acquity HSS T3 column (150 mm×2.1 mm, 1.7 μm, Waters) connected to an Acquity H-class UPLC system. The column temperature was set to 40° C. and the column was equilibrated with solvent A (50 mM potassium phosphate buffer, 8 mM tetrabutylammonium hydrogensulfate, pH 6.5) at a flow rate of 0.45 ml min^−1. Autosampler temperature was maintained at 6° C. […] Nucleotides were detected by Acquity PDA detector (Waters, 260 nm) and quantified using ultrapure standards (Sigma). Data acquisition and processing was performed with the Empower3 software suite (Waters).
Nucleotide sugars were measured with serum starvation during 18 hours of culturing and without of serum starvation and applying normal media.

[1] = Patient 8, 1 d + 0.75 mM Galactose
[2] = Patient 8, 4 d + 0.75 mM Galactose
[3] = listed as 'i e' (patient cell-line 2013Y), 1 d 2 mM Galactose
[4] = listed as 'i e' (patient cell-line 2013Y), 1 d + 0.75 mM Galactose
[5] = listed as 'i e' (patient cell-line 2013Y), 4 d 2 mM Galactose
[6] = listed as 'i e' (patient cell-line 2013Y), 4 d + 0.75 mM Galactose
[7] = patient 1, 1 d + 0.75 mM Galactose
[8] = patient 1, 4 d + 0.75 mM Galactose
[9] = patient 2, 1 d + 0.75 mM Galactose
[10] = patient 2, 4 d + 0.75 mM Galactose

## O=C[C@H](O)[C@@H](O)[C@@H](O)[C@H](O)CO [D-gal, D-galactose]
Patient 8, 1 d 2 mM Galactose
  ADP: 510.69 pmol/mio cells
  AMP: 15.28 pmol/mio cells
  ATP: 2089.09 pmol/mio cells
  CTP: 274.92 pmol/mio cells
  GDP: 213.67 pmol/mio cells
  GDP-Man: 29.66 pmol/mio cells
  GTP: 434.86 pmol/mio cells
  UDP: 153.67 pmol/mio cells
  UDP-Gal: 398.68 pmol/mio cells
  UDP-Glc: 613.75 pmol/mio cells
  UDP-GlcNAc: 31.04 pmol/mio cells
  UTP: 1183.32 pmol/mio cells
  cAMP: 75.29 pmol/mio cells
[1]
  ADP: 429.27 pmol/mio cells
  AMP: 7.31 pmol/mio cells
  ATP: 1855.71 pmol/mio cells
  CTP: 222.68 pmol/mio cells
  GDP: 188.04 pmol/mio cells
  GDP-Man: 31.71 pmol/mio cells
  GTP: 387.39 pmol/mio cells
  UDP: 120.53 pmol/mio cells
  UDP-Gal: 273.66 pmol/mio cells
  UDP-Glc: 445.76 pmol/mio cells
  UDP-GlcNAc: 40.27 pmol/mio cells
  UTP: 1037.93 pmol/mio cells
  cAMP: 72.84 pmol/mio cells
Patient 8, 4 d 2 mM Galactose
  ADP: 695.56 pmol/mio cells
  AMP: 22.78 pmol/mio cells
  ATP: 3192.45 pmol/mio cells
  CTP: 282.74 pmol/mio cells
  GDP: 260.45 pmol/mio cells
  GDP-Man: 95.43 pmol/mio cells
  GTP: 659.21 pmol/mio cells
  UDP: 169.63 pmol/mio cells
  UDP-Gal: 315.21 pmol/mio cells
  UDP-Glc: 493.54 pmol/mio cells
  UDP-GlcNAc: 56.13 pmol/mio cells
  UTP: 1293.27 pmol/mio cells
  cAMP: 88.40 pmol/mio cells
[2]
  ADP: 655.53 pmol/mio cells
  AMP: 18.87 pmol/mio cells
  ATP: 3363.84 pmol/mio cells
  CTP: 274.92 pmol/mio cells
  GDP: 277.54 pmol/mio cells
  GDP-Man: 101.37 pmol/mio cells
  GTP: 682.40 pmol/mio cells
  UDP: 174.89 pmol/mio cells
  UDP-Gal: 283.69 pmol/mio cells
  UDP-Glc: 442.43 pmol/mio cells
  UDP-GlcNAc: 6.33 pmol/mio cells
  UTP: 1364.91 pmol/mio cells
  cAMP: 74.47 pmol/mio cells
All patient cell lines, 4 days of D-gal supplementation
  UDP-Glc and UDP-Gal levels: remained significantly increased
[3]
  ADP: 318.92 pmol/mio cells
  AMP: 2.63 pmol/mio cells
  ATP: 2918.66 pmol/mio cells
  CTP: 295.58 pmol/mio cells
  GDP: 186.06 pmol/mio cells
  GDP-Man: 56.30 pmol/mio cells
  GTP: 566.56 pmol/mio cells
  UDP: 42.70 pmol/mio cells
  UDP-Gal: 503.56 pmol/mio cells
  UDP-Glc: 637.55 pmol/mio cells
  UDP-GlcNAc: 211.57 pmol/mio cells
  UTP: 981.09 pmol/mio cells
  cAMP: 70.73 pmol/mio cells
[4]
  ADP: 407.13 pmol/mio cells
  AMP: 8.23 pmol/mio cells
  ATP: 3422.01 pmol/mio cells
  CTP: 339.16 pmol/mio cells
  GDP: 187.52 pmol/mio cells
  GDP-Man: 107.59 pmol/mio cells
  GTP: 681.74 pmol/mio cells
  UDP: 115.84 pmol/mio cells
  UDP-Gal: 431.17 pmol/mio cells
  UDP-Glc: 703.36 pmol/mio cells
  UDP-GlcNAc: 21.89 pmol/mio cells
  UTP: 1494.83 pmol/mio cells
  cAMP: 91.16 pmol/mio cells
[5]
  ADP: 382.44 pmol/mio cells
  AMP: 16.17 pmol/mio cells
  ATP: 3460.76 pmol/mio cells
  CTP: 241.06 pmol/mio cells
  GDP: 242.68 pmol/mio cells
  GDP-Man: 147.29 pmol/mio cells
  GTP: 681.71 pmol/mio cells
  UDP: 43.26 pmol/mio cells
  UDP-Gal: 394.31 pmol/mio cells
  UDP-Glc: 616.89 pmol/mio cells
  UTP: 1316.26 pmol/mio cells
  cAMP: 98.61 pmol/mio cells
[6]
  ADP: 349.53 pmol/mio cells
  AMP: 3.85 pmol/mio cells
  ATP: 3484.52 pmol/mio cells
  CTP: 280.34 pmol/mio cells
  GDP: 225.14 pmol/mio cells
  GDP-Man: 151.18 pmol/mio cells
  GTP: 686.35 pmol/mio cells
  UDP: 39.53 pmol/mio cells
  UDP-Gal: 290.54 pmol/mio cells
  UDP-Glc: 487.94 pmol/mio cells
  UDP-GlcNAc: 354.84 pmol/mio cells
  UTP: 944.20 pmol/mio cells
  cAMP: 68.63 pmol/mio cells
Patient 1, 1 d 2 mM Galactose
  ADP: 580.50 pmol/mio cells
  ATP: 2719.61 pmol/mio cells
  CTP: 342.25 pmol/mio cells
  GDP: 293.65 pmol/mio cells
  GDP-Man: 107.17 pmol/mio cells
  GTP: 542.24 pmol/mio cells
  UDP: 129.40 pmol/mio cells
  UDP-Gal: 453.09 pmol/mio cells
  UDP-Glc: 650.22 pmol/mio cells
  UDP-GlcNAc: 102.26 pmol/mio cells
  UTP: 1449.38 pmol/mio cells
  cAMP: 74.49 pmol/mio cells
[7]
  ADP: 584.35 pmol/mio cells
  AMP: 23.07 pmol/mio cells
  ATP: 2943.38 pmol/mio cells
  CTP: 366.00 pmol/mio cells
  GDP: 246.90 pmol/mio cells
  GDP-Man: 155.03 pmol/mio cells
  GTP: 588.22 pmol/mio cells
  UDP: 134.67 pmol/mio cells
  UDP-Gal: 386.15 pmol/mio cells
  UDP-Glc: 604.90 pmol/mio cells
  UDP-GlcNAc: 121.57 pmol/mio cells
  UTP: 1510.19 pmol/mio cells
  cAMP: 71.81 pmol/mio cells
Patient 1, 4 d 2 mM Galactose
  ADP: 772.84 pmol/mio cells
  AMP: 22.72 pmol/mio cells
  ATP: 3861.23 pmol/mio cells
  CTP: 370.91 pmol/mio cells
  GDP: 387.40 pmol/mio cells
  GDP-Man: 170.10 pmol/mio cells
  GTP: 763.70 pmol/mio cells
  UDP: 215.93 pmol/mio cells
  UDP-Gal: 398.07 pmol/mio cells
  UDP-Glc: 620.64 pmol/mio cells
  UDP-GlcNAc: 12.26 pmol/mio cells
  UTP: 1569.45 pmol/mio cells
  cAMP: 71.92 pmol/mio cells
[8]
  ADP: 789.98 pmol/mio cells
  AMP: 34.87 pmol/mio cells
  ATP: 3796.06 pmol/mio cells
  CTP: 342.60 pmol/mio cells
  GDP: 422.05 pmol/mio cells
  GDP-Man: 217.57 pmol/mio cells
  GTP: 749.54 pmol/mio cells
  UDP: 208.17 pmol/mio cells
  UDP-Gal: 331.94 pmol/mio cells
  UDP-Glc: 475.08 pmol/mio cells
  UDP-GlcNAc: 38.85 pmol/mio cells
  UTP: 1526.34 pmol/mio cells
  cAMP: 73.68 pmol/mio cells
Patient 2, 1 d 2 mM Galactose
  ADP: 610.98 pmol/mio cells
  AMP: 18.34 pmol/mio cells
  ATP: 5088.22 pmol/mio cells
  CTP: 419.20 pmol/mio cells
  GDP: 301.50 pmol/mio cells
  GDP-Man: 194.09 pmol/mio cells
  GTP: 982.69 pmol/mio cells
  UDP: 166.53 pmol/mio cells
  UDP-Gal: 527.44 pmol/mio cells
  UDP-Glc: 871.97 pmol/mio cells
  UDP-GlcNAc: 5.21 pmol/mio cells
  UTP: 2093.30 pmol/mio cells
  cAMP: 81.52 pmol/mio cells
[9]
  ADP: 754.10 pmol/mio cells
  AMP: 16.43 pmol/mio cells
  ATP: 5766.25 pmol/mio cells
  CTP: 448.80 pmol/mio cells
  GDP: 356.25 pmol/mio cells
  GDP-Man: 236.64 pmol/mio cells
  GTP: 1110.15 pmol/mio cells
  UDP: 219.47 pmol/mio cells
  UDP-Gal: 478.66 pmol/mio cells
  UDP-Glc: 821.98 pmol/mio cells
  UDP-GlcNAc: 36.15 pmol/mio cells
  UTP: 2422.95 pmol/mio cells
  cAMP: 77.51 pmol/mio cells
Patient 2, 4 d 2 mM Galactose
  ADP: 849.99 pmol/mio cells
  AMP: 20.40 pmol/mio cells
  ATP: 6520.85 pmol/mio cells
  CTP: 430.21 pmol/mio cells
  GDP: 356.50 pmol/mio cells
  GDP-Man: 340.74 pmol/mio cells
  GTP: 1241.95 pmol/mio cells
  UDP: 249.58 pmol/mio cells
  UDP-Gal: 455.92 pmol/mio cells
  UDP-Glc: 665.41 pmol/mio cells
  UDP-GlcNAc: 2.63 pmol/mio cells
  UTP: 2810.26 pmol/mio cells
  cAMP: 70.40 pmol/mio cells
[10]
  ADP: 834.56 pmol/mio cells
  AMP: 21.45 pmol/mio cells
  ATP: 6841.61 pmol/mio cells
  CTP: 425.54 pmol/mio cells
  GDP: 394.32 pmol/mio cells
  GDP-Man: 203.23 pmol/mio cells
  GTP: 1263.21 pmol/mio cells
  UDP: 262.74 pmol/mio cells
  UDP-Gal: 390.10 pmol/mio cells
  UDP-Glc: 611.51 pmol/mio cells
  UDP-GlcNAc: 4.53 pmol/mio cells
  UTP: 2976.41 pmol/mio cells
  cAMP: 72.52 pmol/mio cells
Patient cell lines on D-gal (1.63 without)
  Nucleotide sugar ratio UDP-Glc/UDP-Gal, mean: 1.56

— patent publication US20220241311A1, “METHODS AND MATERIALS FOR TREATING GLYCOSYLATION DISORDERS” (priority 2018, published 2022)
